Experimental data: PubChem BioAssay AID192 (DTP/NCI, 2004)
“And” between values parts separate entries of the source, which are not always exact repeats. Identical values can stand only once. Inconclusive results and toxic doses are left out. Rule for the calls: active = survival T/C of 150% or more; inactive = T/C below 125% in these data.

Tested on: BDF1 mice, B16 melanoma ip, median survival T/C
Experiment: NCI In Vivo Anticancer Drug Screen. Data for tumor model B16 Melanoma (intraperitoneal) in B6D2F1 (BDF1) mice
Details: endpoint: median survival time, higher = longer survival
Summary of the method: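 Mice with transplantable tumors; drug vs vehicle groups; endpoint survival or tumor size; value = T/C.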

Measured: T/C

[Cl][Pt+2][Cl].[NH-]c1ccc([N+](=O)[O-])cc1[NH-]
inactive: dose: 5.0 mg/kg/injection, schedule: Q01DX009 (ip), vehicle: saline with Tween-80 103 % of control | dose: 10.0 mg/kg/injection, schedule: Q01DX009 (ip), vehicle: saline with Tween-80 107 % of control | dose: 20.0 mg/kg/injection, schedule: Q01DX009 (ip), vehicle: saline with Tween-80 107 % of control | dose: 40.0 mg/kg/injection, schedule: Q01DX009 (ip), vehicle: saline with Tween-80 118 % of control | dose: 80.0 mg/kg/injection, schedule: Q01DX009 (ip), vehicle: saline with Tween-80 115 % of control

C[CH2][Pb]([CH2]C)([CH2]C)[O][As](=O)(O)c1ccc(N)cc1
inactive: dose: 1.5 mg/kg/injection, schedule: Q01DX009 (ip), vehicle: saline 98 % of control | dose: 3.0 mg/kg/injection, schedule: Q01DX009 (ip), vehicle: saline 96 % of control

COc1ccc(Cl)cc1NC(=O)c1ccccc1C(=O)O
inactive: dose: 100.0 mg/kg/injection, schedule: Q01DX009 (ip), vehicle: Klucel (hydroxypropylcellulose) (HPC) 100 % of control | dose: 200.0 mg/kg/injection, schedule: Q01DX009 (ip), vehicle: Klucel (hydroxypropylcellulose) (HPC) 94 % of control

CNC1=C(N2CC2C)C(=O)C(NC)=C(N2CC2C)C1=O (stereo not given)
inactive: dose: 1.25 mg/kg/injection, schedule: Q01DX009 (ip), vehicle: saline 109 % of control

COc1cc([C@@H]2c3cc4c(cc3[C@@H](OC3OC5COC(C)OC5C(O)C3O)[C@H]3COC(=O)[C@H]23)OCO4)cc(OC)c1O (stereo not given in full)
active: dose: 1.73 mg/kg/injection, schedule: Q01DX009 (ip), vehicle: clinical formulation 206 % of control | dose: 2.0 mg/kg/injection, schedule: Q01DX009 (ip), vehicle: Klucel (hydroxypropylcellulose) (HPC) 150 % of control | dose: 2.88 mg/kg/injection, schedule: Q01DX009 (ip), vehicle: clinical formulation 240 % of control | dose: 4.8 mg/kg/injection, schedule: Q01DX009 (ip), vehicle: clinical formulation 240 % of control | dose: 5.0 mg/kg/injection, schedule: Q01DX009 (ip), vehicle: saline 252 % of control | dose: 5.0 mg/kg/injection, schedule: Q04DX003 (ip), vehicle: suspension in saline 202 % of control | dose: 8.0 mg/kg/injection, schedule: Q01DX009 (ip), vehicle: Klucel (hydroxypropylcellulose) (HPC) 276 % of control | dose: 8.0 mg/kg/injection, schedule: Q01DX009 (ip), vehicle: clinical formulation 259 % of control | dose: 8.0 mg/kg/injection, schedule: Q04DX003 (ip), vehicle: suspension in saline 180 % of control | dose: 10.0 mg/kg/injection, schedule: Q01DX009 (ip), vehicle: saline 285 % of control | dose: 10.0 mg/kg/injection, schedule: Q04DX003 (ip), vehicle: suspension in saline 208 % of control | dose: 16.0 mg/kg/injection, schedule: Q04DX003 (ip), vehicle: suspension in saline 207 % of control | dose: 20.0 mg/kg/injection, schedule: Q04DX003 (ip), vehicle: suspension in saline 236 % of control | dose: 40.0 mg/kg/injection, schedule: Q04DX003 (ip), vehicle: suspension in saline 241 % of control
inactive: dose: 4.0 mg/kg/injection, schedule: Q01DX009 (ip), vehicle: Klucel (hydroxypropylcellulose) (HPC) 111 % of control | dose: 13.3 mg/kg/injection, schedule: Q01DX009 (ip), vehicle: clinical formulation 53 % of control | dose: 32.0 mg/kg/injection, schedule: Q04DX003 (ip), vehicle: suspension in saline 85 % of control | dose: 64.0 mg/kg/injection, schedule: Q04DX003 (ip), vehicle: suspension in saline 63 % of control

CN(C)CCCN=Cc1ccccc1O.CN(C)CCCN=Cc1ccccc1O.[Ni+2]
inactive: dose: 6.25 mg/kg/injection, schedule: Q04DX003 (ip), vehicle: saline with Tween-80 92 % of control | dose: 25.0 mg/kg/injection, schedule: Q04DX003 (ip), vehicle: saline with Tween-80 86 % of control

CC(C)(C)C(=O)C1C(=O)c2ccccc2C1=O
inactive: dose: 0.06 mg/kg/injection, schedule: Q01DX009 (ip), vehicle: Klucel (hydroxypropylcellulose) (HPC) 94 % of control | dose: 0.12 mg/kg/injection, schedule: Q01DX009 (ip), vehicle: Klucel (hydroxypropylcellulose) (HPC) 97 % of control | dose: 0.25 mg/kg/injection, schedule: Q01DX009 (ip), vehicle: Klucel (hydroxypropylcellulose) (HPC) 100 % of control and 108 % of control

C1CC[N-]CC1.C1CC[N-]CC1.C1CC[N-]CC1.C1CC[N-]CC1.[Cl][Co][Cl]
inactive: dose: 37.5 mg/kg/injection, schedule: Q01DX009 (ip), vehicle: saline with Tween-80 103 % of control | dose: 75.0 mg/kg/injection, schedule: Q01DX009 (ip), vehicle: saline with Tween-80 87 % of control
